Data reported in publication doi:10.1101/2021.10.07.463234v2 (biorxiv, 2021).
Where a name gives a salt, the structure may show the parent alone.

Biological target: T1, SARS-CoV-2 Mac1 (Severe acute respiratory syndrome coronavirus 2, UniProt P0DTD1)
Assay: biochemical
Settings: read-out: %inhibition

Row | SMILES | inhibition at 100 µM
1 | Nc1c(S(=O)(=O)O)cc(Nc2ccc(Nc3nc(Cl)nc(Nc4cccc(S(=O)(=O)O)c4)n3)c(S(=O)(=O)O)c2)c2c1C(=O)c1ccccc1C2=O [Reactive Blue 2] | 100%
2 | Nc1nc(Cl)nc2c1ncn2[C@@H]1O[C@H](COP(=O)(O)OP(=O)(O)OP(=O)(O)O)[C@H](O)C1O (some centres unmarked) [2-Chloroadenosine triphosphate tetrasodium] | 57%
3 | COc1cc2c(cc1OC)[C@@H](c1ccccc1)CN(C)CC2 [R(-)-SCH-12679 maleate] | 96%
4 | N#C/C(=C\c1ccc(O)c(O)c1)C(=O)NCc1ccccc1 [Tyrphostin AG 490] | 79%
5 | Cc1ccc(C(=O)Nc2ccc(S(=O)(=O)O)c3cc(S(=O)(=O)O)cc(S(=O)(=O)O)c23)cc1NC(=O)c1cccc(NC(=O)Nc2cccc(C(=O)Nc3cc(C(=O)Nc4ccc(S(=O)(=O)O)c5cc(S(=O)(=O)O)cc(S(=O)(=O)O)c45)ccc3C)c2)c1 [Suramin hexasodium] | 86%
6 | Nc1nc(SCc2ccc([N+](=O)[O-])cc2)c2ncn([C@@H]3O[C@H](CO)[C@@H](O)[C@H]3O)c2n1 [S-(4-Nitrobenzyl)-6-thioguanosine] | 35%
7 | N#CC(C#N)=Cc1ccc(O)c(O)c1 [Tyrphostin 23] | 52%
8 | NNCc1cccc(O)c1 [3-Hydroxybenzylhydrazine dihydrochloride] | 32%
9 | O=C(Nc1cc(C(=O)Nc2ccc(S(=O)(=O)O)cc2S(=O)(=O)O)cc(C(=O)Nc2ccc(S(=O)(=O)O)cc2S(=O)(=O)O)c1)Nc1cc(C(=O)Nc2ccc(S(=O)(=O)O)cc2S(=O)(=O)O)cc(C(=O)Nc2ccc(S(=O)(=O)O)cc2S(=O)(=O)O)c1 [NF449 octasodium salt] | 54%
10 | Cc1cccc(C#Cc2ccccc2)n1 [6-Methyl-2-(phenylethynyl)pyridine hydrochloride] | 45%

Biological target: T1, SARS-CoV-2 Mac1
Assay: biochemical
Settings: 100 µM; inhibitor

Row | SMILES | %inhibition
11 | CN(CCOc1ccc(CC2SC(=O)NC2=O)cc1)c1ccccn1 (centres unmarked) [Rosiglitazone maleate] | 9.239%
12 | CCC[C@@H]1C[C@@H](C(=O)N[C@@H]([C@H]2O[C@H](SC)[C@H](O)[C@@H](O)[C@H]2O)[C@@H](C)O)N(C)C1 [Lincomycin HCl] | 0%
13 | CCOCCn1c(N2CCCN(C)CC2)nc2ccccc21 [Emedastine Difumarate] | 0.198%
14 | Cc1cc(C)nc(NS(=O)(=O)c2ccc(N)cc2)n1 [Sulfamethazine] | 0%
15 | CN1c2ccccc2C(NCCCCCCC(=O)O)c2ccc(Cl)cc2S1(=O)=O (centres unmarked) [Tianeptine sodium] | 0%
16 | NC(=O)c1cccc2cn(-c3ccc([C@@H]4CCCNC4)cc3)nc12 [Niraparib (MK-4827)] | 4.387%
17 | CN1CCN(c2ccc3nc(-c4c(N)c5c(F)cccc5[nH]c4=O)[nH]c3c2)CC1 [Dovitinib (TKI258) Lactate] | 26.03%
18 | Cc1cc(C)nc(NS(=O)(=O)c2ccc(N)cc2)n1 [Sulfamethazine Sodium Salt] | 12.6%
19 | CC1(C)[C@H](C(=O)O)N2C(=O)C[C@H]2S1(=O)=O [Sulbactam] | 20.75%
20 | CNC[C@H](O)c1ccc(O)c(O)c1 [Epinephrine HCl] | 5.697%

Same assay, conditions: read-out: %inhibition

Row | SMILES | inhibition at 100 µM
21 | CN[C@H]1C[C@@H](N)[C@H](O)[C@@H](O[C@@H]2O[C@H](CO)[C@H](O)[C@@H]3OC4(O[C@H]23)O[C@H]([C@@H](N)CO)[C@H](O)[C@H](O)[C@H]4O)[C@@H]1O (some centres unmarked) [Hygromycin B] | 0%
22 | COc1ccc(CCNCC(O)COc2cccc(C)c2)cc1OC (centres unmarked) [Bevantolol hydrochloride] | 17.4%
23 | O=C(O)COC(=O)Cc1ccccc1Nc1c(Cl)cccc1Cl [Aceclofenac] | 0%
24 | Cc1cc2c(cc1S(N)(=O)=O)S(=O)(=O)CCC2 [Meticrane] | 0%
25 | C/C=C(\C)C(=O)O[C@H]1[C@H](OC(C)=O)[C@@]2(CO)C(CC1(C)C)C1=CCC3[C@@]4(C)CCC(O[C@@H]5O[C@H](C(=O)O)[C@@H](O[C@@H]6O[C@H](CO)[C@@H](O)[C@H](O)[C@H]6O)[C@H](O)[C@H]5O[C@@H]5O[C@H](CO)[C@@H](O)[C@H](O)[C@H]5O)[C@](C)(CO)C4CC[C@@]3(C)[C@]1(C)C[C@H]2O (some centres unmarked) [Escin] | 6.9%
26 | CC(C)NCC(O)c1ccc(NS(C)(=O)=O)cc1 (centres unmarked) [Sotalol HCl] | 0%
27 | COc1cccc2c1C(=O)c1c(O)c3c(c(O)c1C2=O)CC(O)(C(=O)CO)CC3OC1CC(N)C(O)C(C)O1 (centres unmarked) [Doxorubicin (Adriamycin) HCl] | 18.3%
28 | Nc1nc(N)c2nc(-c3ccccc3)c(N)nc2n1 [Triamterene] | 4.22%
29 | C=CC1=C(C(=O)O)N2C(=O)[C@@H](NC(=O)/C(=N\OCC(=O)O)c3csc(N)n3)[C@H]2SC1 [Cefixime] | 0%
30 | Cc1[nH]cnc1CN1CCc2c(c3ccccc3n2C)C1=O [Alosetron Hydrochloride] | 16.8%
31 | C[C@H](N)[C@H](O)c1cccc(O)c1 [Metaraminol Bitartrate] | 8.05%
32 | O=c1cccc2n1C[C@@H]1CNC[C@H]2C1 [Cytisine] | 0%
33 | N=C(N)N/N=C/c1c(Cl)cccc1Cl [Guanabenz Acetate] | 0%
34 | O=C(O)c1cccnc1Nc1cccc(C(F)(F)F)c1 [Niflumic acid] | 11%
35 | CCC(=O)NCC[C@@H]1CCc2ccc3c(c21)CCO3 [Ramelteon] | 21%
36 | NC[C@@H]1O[C@H](O[C@H]2[C@@H](O)[C@H](O[C@@H]3[C@@H](O)[C@H](N)C[C@H](N)[C@H]3O[C@H]3O[C@H](CO)[C@@H](O)[C@H](O)[C@H]3N)O[C@@H]2CO)[C@H](N)[C@@H](O)[C@@H]1O [Paromomycin Sulfate] | 0.814%
37 | COc1cccc2c1C(=O)c1c(O)c3c(c(O)c1C2=O)C[C@@](O)(C(=O)CO)C[C@@H]3O[C@H]1C[C@H](N)[C@@H](O)[C@H](C)O1 [Epirubicin HCl] | 51.4%
38 | CC1=C(C(=O)OCCN(Cc2ccccc2)c2ccccc2)C(c2cccc([N+](=O)[O-])c2)C(P2(=O)OCC(C)(C)CO2)=C(C)N1 (centres unmarked) [Efonidipine] | 14.5%
39 | Cc1nnc(C(C)C)n1[C@@H]1C[C@H]2CC[C@@H](C1)N2CC[C@H](NC(=O)C1CCC(F)(F)CC1)c1ccccc1 [Maraviroc] | 24.2%
40 | COc1cccc2c1C(=O)c1c(O)c3c(c(O)c1C2=O)C[C@@](O)(C(C)=O)C[C@@H]3O[C@H]1C[C@H](N)[C@H](O)[C@H](C)O1 [Daunorubicin HCl] | 30.2%
41 | CN(C)CCCN1c2ccccc2Sc2ccc(Cl)cc21 [Chlorpromazine HCl] | 0%
42 | C=CC[N+]1([C@H]2C[C@H]3[C@@H]4CC[C@H]5C[C@H](O)[C@@H](N6CCOCC6)C[C@]5(C)[C@H]4CC[C@]3(C)[C@H]2OC(C)=O)CCCC1 [Rocuronium Bromide] | 0%
43 | CCOc1nc2cccc(C(=O)O)c2n1Cc1ccc(-c2ccccc2-c2noc(=O)[nH]2)cc1 [Azilsartan] | 16.1%

Row | SMILES | inhibition at 100 µM
44 | Cc1ccc(NC(=O)c2ccc(CN3CC[C@H](N(C)C)C3)c(C(F)(F)F)c2)cc1Nc1nccc(-c2cncnc2)n1 [Bafetinib (INNO-406)] | 0%
45 | CC(C)[N+](C)(CCOC(=O)C1c2ccccc2Oc2ccccc21)C(C)C [Propantheline bromide] | 0%
46 | C[C@@H](O[C@H]1OCCN(Cc2n[nH]c(=O)[nH]2)[C@H]1c1ccc(F)cc1)c1cc(C(F)(F)F)cc(C(F)(F)F)c1 [Aprepitant] | 10.1%
47 | Cc1ccc(-n2nc(C(C)(C)C)cc2NC(=O)Nc2ccc(OCCN3CCOCC3)c3ccccc23)cc1 [Doramapimod (BIRB 796)] | 0%
48 | Cn1nnc(-c2ccc(-c3ccc(N4C[C@H](COP(=O)(O)O)OC4=O)cc3F)cn2)n1 [Tedizolid Phosphate] | 0%
49 | CN1CCN(C2=Nc3ccccc3Oc3ccc(Cl)cc32)CC1 [Loxapine Succinate] | 30.4%
50 | O=C(C[S+]([O-])Cc1ccco1)NC/C=C\COc1cc(CN2CCCCC2)ccn1 (centres unmarked) [Lafutidine] | 0%
51 | c1cn2cc(-c3ccc4cn[nH]c4c3)nc(Nc3ccc(N4CCOCC4)cc3)c2n1 [Entospletinib (GS-9973)] | 29.5%
52 | CC(C)[N+]1(C)[C@@H]2CC[C@H]1C[C@@H](OC(=O)C(CO)c1ccccc1)C2 (some centres unmarked) [Ipratropium Bromide] | 9.25%
53 | CC(=O)N1C[C@H](O)C[C@H]1C(=O)O [Oxaceprol] | 0%
54 | N#C[C@@H]1CCCN1C(=O)CNC12CC3CC(CC(O)(C3)C1)C2 [Vildagliptin (LAF-237)] | 11.7%
55 | CC(C)(C)C(O)/C=C/c1ccc2c(c1)OCO2 (centres unmarked) [Stiripentol] | 12.5%
56 | CCC(=O)O[C@@H](O[P@](=O)(CCCCc1ccccc1)CC(=O)N1C[C@H](C2CCCCC2)C[C@H]1C(=O)O)C(C)C [Fosinopril Sodium] | 0%
57 | CCN(CC)CCOCCOC(=O)C(CC)(CC)c1ccccc1 [Oxeladin Citrate] | 0.462%
58 | CO[C@@]1(NC(=O)Cc2cccs2)C(=O)N2C(C(=O)O)=C(COC(N)=O)CS[C@@H]21 [Cefoxitin sodium] | 0%
59 | O=C1CC[C@@]2(O)[C@H]3Cc4ccc(O)c5c4[C@@]2(CCN3CC2CC2)[C@H]1O5 [Naltrexone HCl] | 0%
60 | Cn1cc(C2=C(c3cn(C4CCN(Cc5ccccn5)CC4)c4ccccc34)C(=O)NC2=O)c2ccccc21 [Enzastaurin (LY317615)] | 34.6%
61 | C=C(c1ccc(C(=O)O)cc1)c1cc2c(cc1C)C(C)(C)CCC2(C)C [Bexarotene] | 0%
62 | CC(=O)O[C@@]12CO[C@@H]1C[C@H](O)[C@@]1(C)C(=O)[C@H](O)C3=C(C)[C@@H](OC(=O)[C@H](O)[C@@H](NC(=O)OC(C)(C)C)c4ccccc4)C[C@@](O)([C@@H](OC(=O)c4ccccc4)[C@H]21)C3(C)C [Docetaxel] | 11.6%
63 | CC(C)C[C@H](N)C(=O)O [L-Leucine] | 0%
64 | CC(=O)O[C@H]1Cc2ccccc2N(C(N)=O)c2ccccc21 [Eslicarbazepine Acetate] | 0%
65 | CC(C)(Oc1ccc(Cl)cc1)C(=O)O [Clofibric Acid] | 17.2%
